Biological target: bovine serum albumine (Bos taurus, UniProt P02769)
Assay: Inhibition of furosine formation (non-enzymatic glycosylation of BSA by glucose, furosine determined by HPLC)
Details: 672 h, pH 7.3, read-out: Inhibition rate (%)
Procedure: The sample solutions were kept for 4 weeks at 37 °C, and the amount of furosine which was formed by non-enzymatic glycosylation was determined by HPLC according to the method of Schleicher et al. (J. Clin. Biochem., 19:81-87 (1981).] Thus, the sample solutions after reaction were dialyzed, and aliquots of 1 ml were lyophylized and then hydrolyzed by the addition of 1 ml of 6 N hydrochloric acid followed by heating at 100 °C for 20 hours. After removal of hydrochloric acid by evaporation, 1 ml of water was added to each sample, and the samples were subjected to filtration using a filter with the pore size of 0.45 µm. The filtrate was used as the sample for HPLC. ODS-120T (Toso) was used for the column and 7 mM phosphoric acid solution was used as the eluant. The absorbance peak whose ratio of peak area at 280 mm/254 mm was 3.9/1 was regarded as the peak corresponding to furosine.
Upon the area of the peak of furosine of each sample, the inhibition rate of furosine formation by the test compound was calculated as follows. Inhibition rate (%)=(c-d)+(c-n)×100 c; peak area of furosine of the control sample d; peak area of furosine of the test sample n; peak area of furosine of the normal sample

bovine serum albumine, sequence (P02769 25-607): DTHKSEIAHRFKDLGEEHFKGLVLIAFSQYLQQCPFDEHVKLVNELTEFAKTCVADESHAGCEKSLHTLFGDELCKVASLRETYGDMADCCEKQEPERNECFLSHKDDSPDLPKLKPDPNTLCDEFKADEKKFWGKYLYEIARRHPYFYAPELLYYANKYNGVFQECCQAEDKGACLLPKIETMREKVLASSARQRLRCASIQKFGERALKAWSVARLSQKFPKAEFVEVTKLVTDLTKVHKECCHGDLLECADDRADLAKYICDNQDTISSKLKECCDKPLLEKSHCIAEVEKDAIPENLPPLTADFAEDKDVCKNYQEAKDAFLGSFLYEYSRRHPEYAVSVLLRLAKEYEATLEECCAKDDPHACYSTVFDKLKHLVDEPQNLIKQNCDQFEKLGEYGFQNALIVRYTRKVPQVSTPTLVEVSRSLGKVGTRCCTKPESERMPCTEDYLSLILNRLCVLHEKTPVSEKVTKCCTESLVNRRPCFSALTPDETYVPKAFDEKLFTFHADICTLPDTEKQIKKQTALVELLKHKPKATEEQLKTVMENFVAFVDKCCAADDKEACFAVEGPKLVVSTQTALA

inhibition at 5000 µM [%] | SMILES
77.8 | O=C(O)c1cc(O)c2c(n1)C(=O)C=C(O)C2=O [T-1]
73.4 | O=C1C=CC(=O)c2c(O)cc(C(F)(F)F)nc21 [T-3]
92.5 | COC(=O)c1cc(O)c2c(n1)C(=O)C=CC2=O [T-4]
99.5 | Cc1cc(O)c2c(n1)C(=O)C=CC2=O [T-9]
73.8 | O=c1ccc2[n+]([O-])c3ccc(O)cc3oc-2c1 [T-10, resazurin]
78.9 | O=C(O)c1cc(O)c2c(O)ccc(O)c2n1 [T-5]
79.9 | Oc1ccc(O)c2c(O)cc(C(F)(F)F)nc12 [T-2]
76 | O=C(O)c1cc(O)c2c(n1)C(=O)C=CC2=O [T-6]
96.9 | CCOC(=O)c1cnc2c(c1O)C(=O)C=CC2=O [T-8]
79.9 | O=C(O)c1cnc2c(c1O)C(=O)C=CC2=O [T-7]

SMILES | inhibition at 5000 µM [%]
N=C(N)NN [Aminoguanidine, aminoguanidine, reference compound] | 7.5

Source: EP0433679A2, “Pharmaceutical compositions for inhibition of maillard's reaction” (Senju Pharmaceutical Co., Ltd., priority 1989, dated 1991)
